In patent US11518739B2, “Sulfonamide carboxamide compounds” (Inflazome Limited, priority 2017, dated 2022) one finds IC50 data, which are given here for three compounds.

SMILES strings stand for the structures. Where a name gives a salt, the structure may show the parent alone.

Test [1] concerns the target T1, NLRP3 (Homo sapiens, UniProt Q96P20). The experiment in a line: Human whole blood IL-1β release assay (LPS + nigericin, AlphaLisa). Also noted: Plate out 80 μl of whole blood containing 1 μg/ml of LPS in 96-well, clear bottom cell culture plate; from tissue; host or cells: human whole blood from healthy donors (Li-heparin). The settings on record: NLRP3 inhibitory activity in human whole blood, 1 μg/ml LPS, 10 μM nigericin, read-out: HWB IC50. In kind it is cell-based. The procedure:
For systemic delivery, the ability to inhibit NLRP3 when the compounds are present within the bloodstream is of great importance. For this reason, the NLRP3 inhibitory activity of a number of compounds in human whole blood was investigated in accordance with the following protocol.
Human whole blood in Li-heparin tubes was obtained from healthy donors from a volunteer donor panel. • 1. Plate out 80 μl of whole blood containing 1 μg/ml of LPS in 96-well, clear bottom cell culture plate (Corning #3585) • 2. Add 10 μl compound (8 points half-log dilution with 10 μM top dose) or vehicle (DMSO 0.1% FAC) to the appropriate wells • 3. Incubate for 3 hrs at 37° C., 5% CO2 • 4. Add 10 μl nigericin (Sigma #N7143) (10 μM FAC) to all wells • 5. Incubate for 1 hr at 37° C., 5% CO2 • 6. At the end of the incubation period, spin plates at 300×g for 5 mins to pellet cells and remove 20 μl of supernatant and add to 96-well v-bottom plates for IL-1β analysis (note: these plates containing the supernatants can be stored at −80° C. to be analysed at a later date) • 7. IL-1β was measured according to the manufacturer protocol (Perkin Elmer-AlphaLisa IL-1 Kit AL220F-5000) • 8. IC50 data is fitted to a non-linear regression equation (log inhibitor vs response-variable slope 4-parameters)

Test [2] has as its target T1, NLRP3. The experiment in a line: THP-1 cells pyroptosis assay (LPS-primed, nigericin-triggered, resazurin readout). The settings on record: NLRP3 inhibitory activity in THP-1 cells, 1.0 μg/ml LPS, 5 μM nigericin. In kind it is cell-based. Also noted: Seed THP-1 cells (25,000 cells/well) containing 1.0 μg/ml LPS in 40 μl of RPMI medium; host or cells: THP-1 cells, LPS-primed, nigericin-triggered. As for the experimental part:
THP-1 cells (ATCC #TIB-202) were grown in RPMI containing L-glutamine (Gibco #11835) supplemented with ImM sodium pyruvate (Sigma #S8636) and penicillin (100 units/ml)/streptomycin (0.1 mg/ml) (Sigma #P4333) in 10% Fetal Bovine Serum (FBS) (Sigma #F0804). The cells were routinely passaged and grown to confluency ([…]). On the day of the experiment, THP-1 cells were harvested and resuspended into RPMI medium (without FBS). The cells were then counted and viability (>90%) checked by Trypan blue (Sigma #T8154). Appropriate dilutions were made to give a concentration of 625,000 cells/ml. To this diluted cell solution was added LPS (Sigma #L4524) to give a 1 μg/ml Final Assay Concentration (FAC). […] of the final preparation was aliquoted into each well of a 96-well plate. The plate thus prepared was used for compound screening.
The following method step-by-step assay was followed for compound screening. • 1. Seed THP-1 cells (25,000 cells/well) containing 1.0 μg/ml LPS in 40 μl of RPMI medium (without FBS) in 96-well, black walled, clear bottom cell culture plates coated with poly-D-lysine (VWR #734-0317) • 2. Add 5 μl compound (8 points half-log dilution, with 10 μM top dose) or vehicle (DMSO 0.1% FAC) to the appropriate wells • 3. Incubate for 3 hrs at 37° C. in 5% CO2 • 4. Add 5 μl nigericin (Sigma #N7143) (FAC 5 μM) to all wells • 5. Incubate for 1 hr at 37° C. and 5% CO2 • 6. At the end of the incubation period, spin plates at 300×g for 3 mins and remove supernatant • 7. Then add 50 μl of resazurin (Sigma #R7017) (FAC 100 μM resazurin in RPMI medium without FBS) and incubate plates for a further 1-2 hrs at 37° C. and 5% CO2 • 8. Plates were read in an Envision reader at Ex 560 nm and Em 590 nm • 9. IC50 data is fitted to a non-linear regression equation (log inhibitor vs response-variable slope 4-parameters)

T1 sequence (Q96P20 whole entry): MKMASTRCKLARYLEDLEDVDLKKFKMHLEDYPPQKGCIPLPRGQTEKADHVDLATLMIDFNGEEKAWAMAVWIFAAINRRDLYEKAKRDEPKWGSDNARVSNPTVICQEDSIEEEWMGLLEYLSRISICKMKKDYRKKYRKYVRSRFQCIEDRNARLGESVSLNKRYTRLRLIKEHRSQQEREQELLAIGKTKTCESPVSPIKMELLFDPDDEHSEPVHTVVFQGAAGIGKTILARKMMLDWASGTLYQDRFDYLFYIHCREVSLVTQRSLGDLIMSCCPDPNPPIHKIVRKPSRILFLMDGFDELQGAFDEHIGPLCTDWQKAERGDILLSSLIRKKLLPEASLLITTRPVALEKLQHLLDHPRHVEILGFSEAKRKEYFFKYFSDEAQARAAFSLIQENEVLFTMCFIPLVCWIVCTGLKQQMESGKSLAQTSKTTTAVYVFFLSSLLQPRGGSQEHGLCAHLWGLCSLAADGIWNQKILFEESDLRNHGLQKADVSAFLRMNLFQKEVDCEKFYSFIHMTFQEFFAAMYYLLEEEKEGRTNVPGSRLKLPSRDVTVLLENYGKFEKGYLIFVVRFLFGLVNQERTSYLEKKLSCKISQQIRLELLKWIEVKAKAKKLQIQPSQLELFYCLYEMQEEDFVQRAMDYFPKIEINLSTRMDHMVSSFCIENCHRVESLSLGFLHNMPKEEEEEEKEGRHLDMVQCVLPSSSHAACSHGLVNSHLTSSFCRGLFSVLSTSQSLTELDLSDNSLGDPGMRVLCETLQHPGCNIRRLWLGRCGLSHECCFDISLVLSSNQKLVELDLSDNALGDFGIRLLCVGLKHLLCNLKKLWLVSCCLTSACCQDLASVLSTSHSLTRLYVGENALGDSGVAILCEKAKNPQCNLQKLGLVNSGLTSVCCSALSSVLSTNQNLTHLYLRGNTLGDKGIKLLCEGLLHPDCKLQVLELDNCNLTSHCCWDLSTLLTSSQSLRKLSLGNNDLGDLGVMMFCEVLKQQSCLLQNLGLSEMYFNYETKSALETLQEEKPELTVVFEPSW

As to `O=C(Nc1c2c(cc3c1CCC3)CCC2)NS(=O)(=O)Cc1ccc(Cl)c(F)c1` [Example 13, 1-(4-Chloro-3-fluorophenyl)-N-((1,2,3,5,6,7-hexahydro-s-indacen-4-yl)carbamoyl)methanesulfonamide, Sodium Salt], the IC50 on NLRP3 [1] is above 10 µM; against NLRP3 [2] it was at most 1 µM.

As to `O=C(Nc1c2c(cc3c1CCC3)CCC2)NS(=O)(=O)Cc1cccc(Br)c1` [Example 19, 1-(3-Bromophenyl)-N-((1,2,3,5,6,7-hexahydro-s-indacen-4-yl)carbamoyl)methanesulfonamide, Sodium Salt], the IC50 is above 10 µM at NLRP3 [1] and at most 1 µM against NLRP3 [2].

For the compound `O=C(Nc1c2c(cc3c1CCC3)CCC2)NS(=O)(=O)Cc1ccc(C(F)(F)F)cc1` [Example 10, N-((1,2,3,5,6,7-Hexahydro-s-indacen-4-yl)carbamoyl)-1-(4-(trifluoromethyl)phenyl)methanesulfonamide, Sodium Salt], the IC50 on NLRP3 [1] was 5 to 7.5 µM; on NLRP3 [2] it was at most 1 µM.
